Experimental data as given in patent US20050038259A1, “Hydroxyeicosenoic acid anaglogs” (priority 2001, published 2005).

Assays:
Rat neutrophils = test: Test for elastase production by fMLP stimulation (elastase release inhibition); format: cell-based; settings: Neutrophil; elastase release from cytochalasin B-primed rat neutrophils stimulated with fMLP (1 μM); elastase activity in supernatant
Procedure: Rat neutrophils preparation was obtained 15-18 hrs after intraperitoneal injection of a 1% sterile casein solution in saline (120 mL/kg). Cells were harvested by peritoneal lavage after the decapitation. The lavage fluid was ice-cold PBS (Phosphate-Buffered Saline). Peritoneal exudates were pooled, centrifuged and suspended in HBSS (Hanks' Balanced Salt Solution) at 1×10^7 cells/mil. Cytochalasin B (final concentration: 5 μg/ml) were added to prime the cells. The cells were added into a 96-well culture plate (190 μL/well) and then the compounds of the present invention at various concentrations (10^−7 to 3×10^−5 M) were added and incubated at 37° C. in an atmosphere of 5% CO2 in air. After 10 minutes, fMLP (20 μM, 10 μL) was added, while 10 μL of an HBSS solution containing 0.4% ethanol was added to the group to which no fMLP was added. After gently stirring, cells were incubated for further 10 minutes. The reaction was stopped on ice, and an incubated supernatant was recovered by centrifugation.
Elastase activity in the incubated supernatant was measured using a specific elastase substrate, N-succinyl-L-alanyl-L-alanyl-L-proline-valine-MCA (Peptide Institute, Inc., Osaka), 0.12 mM in 50 mM Tris-HCl (pH 8.0). Fifty microliter of an incubated supernatant was added to the substrate solution (50 μL) and incubated at 37° C. for 30 minutes. Elastase activity was assayed at a wavelength of 360 nm at excitation and 480 nm at emission.
Elastase release-inhibiting activity (inhibition ratio) was calculated according to the following equation: Inhibition ratio (%)={1−(A−C)/(B−C)}×100 wherein A stands for a fluorescence intensity when […]; and C stands for a fluorescence intensity when fMLP (1 μM) was not added.
Inhibitory concentration of 50% (IC50 value) of the compound of the invention was calculated with a concentration-inhibition ratio curve.

[1] = tested on: Rat transient MCA occlusion (t-MCAo) model; test: Infarct volume in rat transient MCA occlusion (t-MCAo) model; format: in vivo; settings: intravenous 1 hour infusion immediately after reperfusion
Procedure: FIG. 1 represents an effect of the compound 50 on infarct volume in rat t-MCAo model. The infarct volumes of total (closed bar), cortex (solid bar) and sub-cortex (open bar) were determined 71 hrs after reperfusion. Data are presented as mean ±SEM. *p<0.05 vs vehicle-treated group (Dunnett's test).
Adult male Wistar rats (200-250 g) were anesthetized with 2% halothane in air. The right internal carotid artery (ICA) was carefully dissected. A silicon-coated suture (18 mm-long) was inserted to the ICA. Body temperature was maintained at 37° C. with a heating pad. […] After 1 hour of MCA occlusion, the thread was removed to allow reperfusion of the ischemic area. Rats were received intravenously 1 hour-infusion of vehicle (10% of HP-β-CD) or the compound 50 dissolved in vehicle immediately after reperfusion.
To measure infarct volume, rats were killed at 71 hours of reperfusion. Brains were perfused transcardially with physiological saline, and removed from skulls, cut into 2-mm coronal sections. The slices were immersed in 2% triphenyltetrazolium chloride (TTC) solution at 37° C. for 30 minutes.
All values were presented as mean ±SEM. For statistical analyses, Dunnett's multiple-range test was used.

| Compound | IC50 (Rat neutrophils) [µM] | reduction of total infarct volume as compared with vehicle-treated group ([1]; 0.01 mg/kg/min, 71 hours of reperfusion, significant) [%] | effect on infarct volume ([1]; from 0.001 mg/kg/min, doses 0.001, 0.01, 0.1 mg/kg/min) |
| --- | --- | --- | --- |
| CCCC[C@@H](O)C#CCCCCCCCCCCCCCC(=O)O [Compound 4, (R)-17-Hydroxyheneicos-15-ynoic acid] | 10.3 | – | – |
| CCCC[C@@H](O)C#CCCCCCCCCCCCCC(=O)O [Compound 12, (R)-16-Hydroxyeicos-14-ynoic acid] | 9.18 | – | – |
| CCCC[C@@H](O)/C=C\CCCCCCCCCCCCC(=O)O [Compound 50, (R)-(Z)-16-Hydroxyeicos-14-enoic acid] | 8.29 | 35.3 | reduced the infarct volume |
| CCCC[C@@H](O)/C=C\CCCCCCCCCCCC(=O)O [Compound 65, (R)-(Z)-15-Hydroxynonadec-13-enoic acid] | 17.5 | – | – |
